Experimental data taken from paper doi:10.1101/2021.10.04.463106, “A high throughput screening assay for inhibitors of SARS-CoV-2 pseudotyped particle entry” (bioRxiv, 2021).
Where a name gives a salt, the structure may show the parent alone.

Experiments:
[1] = ATP content cytotoxicity assay; conditions: human, HEK293-ACE2 cells
[2] = tested on: SARS-CoV-2-S PP (Wuhan-Hu-1 spike); test: microbe, parasite or virus in culture; type: cell-based; conditions: Severe acute respiratory syndrome coronavirus 2, read-out: PP EC50
[3] = tested on: SARS-CoV-2 (USA_WA1/2020); type: cell-based
[4] = tested on: VSV-G PP; type: cell-based, vesicular stomatitis virus

SMILES	EC50 at 48 h [1] [µM]	EC50 [2] [µM]	protective effect against cell death caused by the virus (CPE rescue) [3]	potency in the VSV-G PP entry counter assay compared with SARS-CoV-2-S PP entry [4]
CCOC(=O)[C@H]1O[C@@H]1C(=O)N[C@@H](CC(C)C)C(=O)NCCC(C)C [Aloxistatin, aloxistatin]	> 50	0.19		
Cc1cccc(/C=N/Nc2cc(N3CCOCC3)nc(OCCc3ccccn3)n2)c1 [Apilimod, apilimod]	9.31	0.12		
COc1cc(N2CCC(N3CCN(C)CC3)CC2)ccc1Nc1ncc(Cl)c(Nc2ccccc2P(C)(C)=O)n1 [Brigatinib, brigatinib]	0.67	4.3		
CCCC[C@@H](C=O)NC(=O)[C@H](CC(C)C)NC(=O)OCc1ccccc1 [Calpeptin, calpeptin]	> 50	1.2		
Oc1ccc(Cl)cc1Cc1cc(Cl)ccc1O [Dichlorophen, dichlorophen]		0.03	not confirmed	
Nc1ncnc2c1ncn2CCOCP(=O)(O)O [adefovir]				same potency
C[C@@H]1CCO[C@H]2Cn3cc(C(=O)NCc4ccc(F)cc4F)c(=O)c(O)c3C(=O)N12 [dolutegravir]				same potency
COc1cc2c(cc1Cc1cccc(Cl)c1F)c(=O)c(C(=O)O)cn2[C@H](CO)C(C)C [elvitegravir]				same potency
CC(C)OC(=O)OCOP(=O)(CO[C@H](C)Cn1cnc2c(N)ncnc21)OCOC(=O)OC(C)C [tenofovir disoproxil fumarate]				same potency
